Source: patent US20250276972A1, “COMPOUNDS AS CASEIN KINASE INHIBITORS” (GRITSCIENCE BIOPHARMACEUTICALS CO.,LTD., priority 2020, published 2025)

Key:
wild type CK1δ = wild type CK1δ (Homo sapiens, UniProt P48730); assay: CK1δ kinase assay (Kinase-Glo); type: biochemical; conditions: 10 μM ATP, 2 nM wild type CK1δ, 85 min at 25° C.
Experimental: The reaction mixture was incubated for 85 min at 25° C.; detection was carried out as described for the Kinase-Glo Assay (Promega). Luminescent output was measured on the Perkin Elmer Envision plate reader (PerkinElmer, Waltham, MA).

CK1δ = target: T1, CK1δ (Homo sapiens, UniProt P48730); assay: CK1δ inhibition (EC50); Bmal1-dLuc or Per2-dLuc U2OS luminescence rhythm period assay; type: cell-based; conditions: Table 3
T1 construct: endogenous in cells; host or cells: Bmal1-dLuc or Per2-dLuc U2OS cells
Experimental: Bmall-dLuc or Per2-dLuc U2OS cells were suspended in the culture medium (DMEM supplemented with 10% fetal bovine serum, 0.29 mg/mL L-glutamine, 100 units/mL penicillin, and […] streptomycin) and plated onto 96-well white solid-bottom plates at 200 μL (10,000 cells) per well. After 2 days, 100 μL of the explant medium (DMEM supplemented with 2% B27, 10 mM HEPES, 0.38 mg/mL sodium bicarbonate, 0.29 mg/mL L-glutamine, 100 units/mL penicillin, […], 0.1 mg/mL gentamicin, and 1 mM luciferin, pH 7.2) was dispensed to each well, followed by the application of 1 μL of a compound of the present application (dissolved in DMSO; final concentration was 0.7% in DMSO). The plate was covered with an optically clear film and set to microplate reader (Infinite M200, Tecan).

[1] = Intrinsic clearance in liver microsomes (mouse); type: in vitro ADME; conditions: Mouse liver microsomes 0.5 mg/mL, 2 μM compound, 37° C.
Experimental: (§1) • 1. The master solution was prepared according to Table 5.
(§2) • 2. Three separated experiments were performed as follows. a) With NADPH: 10 μL of 20 mg/mL liver microsomes and 40 μL of 10 mM NADPH were added to the incubations. The final concentrations of microsomes and NADPH were 0.5 mg/mL and 1 mM, respectively. b) Without NADPH: 10 μL of 20 mg/mL liver microsomes and 40 μL of ultra-pure H2O were added to the incubations. The final concentration of microsomes was 0.5 mg/mL. c) Heat-inactivated microsomes without NADPH: 10 μL of 20 mg/mL heat-inactivated liver microsomes and 40 μL of ultra-pure H2O were added to the incubations. The final concentration of microsomes was 0.5 mg/mL. • 3. The reaction was started with the addition of 4 μL of 200 μM test compound solution or control compound solution at the final concentration of 2 μM and carried out at 37° C. • 4. Aliquots of 50 μL were taken from the reaction solution at 0, 15, 30, 45 and 60 min. […] Samples were centrifuged at 3, 220 g for 40 minutes. […] Data Analysis
(§3) Peak areas were determined from extracted ion chromatograms. The slope value, k, was determined by linear regression of the natural logarithm of the remaining percentage of the parent drug vs. incubation time curve.
(§4) The in vitro half-life (in vitro t1/2) was determined from the slope value:
(§5) Conversion of the in vitro t1/2 (min) into the in vitro intrinsic clearance (in vitro CLint, in μL/min/mg protein) was done using the following equation (mean of duplicate determinations): […]

in vitro = conditions: human, Caco-2, pH 7.4
Experimental: Cells were cultivated for 14-18 days in a cell culture incubator at 37° C., 5% CO2, 95% relative humidity. Cell culture medium was replaced every other day, beginning no later than 24 hours after initial plating.
10 mM stock solutions of test compounds were prepared in DMSO. The stock solutions of positive controls were prepared in DMSO at the concentration of 10 mM.
125 μL of 5 μM working solution of control compound and test compounds were added to the Transwell insert (apical compartment), and transfer 50 μL sample (DO sample) immediately from the apical compartment to a new 96-well plate. […] 285 μL of 5 μM working solution of control compound and test compounds were to the receiver plate wells (basolateral compartment), and transfer 50 μL sample (DO sample) immediately from the basolateral compartment to a new 96-well plate. Fill the wells in the Transwell insert (apical compartment) with 75 μL of HBSS (10 mM HEPES, pH 7.4). […] Samples were Vortexed for 5 minutes and then centrifuged at 3,220 g for 40 minutes. […] 100 μL of the Lucifer yellow solution was added to each Transwell insert (apical compartment), followed by filling the wells in the receiver plate (basolateral compartment) with 300 μL of HBSS (10 mM HEPES, pH 7.4). The plates were Incubated at 37° C. for 30 mins. 80 μL samples were removed directly from the apical and basolateral wells (using the basolateral access holes) and transferred to wells of new 96 wells plates. The Lucifer Yellow fluorescence (to monitor monolayer integrity) signal was measured in a fluorescence plate reader at 485 nm excitation and 530 nm emission.
The apparent permeability coefficient (Papp), in units of centimeter per second, can be calculated for Caco-2 drug transport assays using the following equation: […]

[2] = Intrinsic clearance in liver microsomes (human); type: in vitro ADME; conditions: Human liver microsomes 0.5 mg/mL, 2 μM compound, 37° C.
Experimental: as §1, §2, §3, §4, §5

[3] = read-out: in vitro CLint (μL/min/mg protein)

T1 sequence (P48730 whole entry): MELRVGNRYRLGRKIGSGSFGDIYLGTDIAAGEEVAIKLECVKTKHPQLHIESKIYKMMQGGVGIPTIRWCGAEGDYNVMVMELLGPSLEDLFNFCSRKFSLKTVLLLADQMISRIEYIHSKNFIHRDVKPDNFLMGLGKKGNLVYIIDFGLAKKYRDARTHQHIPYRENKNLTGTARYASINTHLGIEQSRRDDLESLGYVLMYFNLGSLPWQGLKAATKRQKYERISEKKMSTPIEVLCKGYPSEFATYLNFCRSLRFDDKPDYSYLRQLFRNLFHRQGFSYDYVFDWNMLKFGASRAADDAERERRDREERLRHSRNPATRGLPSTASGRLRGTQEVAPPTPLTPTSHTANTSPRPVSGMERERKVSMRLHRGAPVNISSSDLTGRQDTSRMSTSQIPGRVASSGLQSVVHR
wild type CK1δ, sequence (P48730 whole entry): as above

## COc1ccc(/C=C/C(=O)Nc2cc(-c3c(-c4ccc(F)cc4)nn4c3CN(C(C)=O)CC4)ccn2)c(OC)c1 [Compound I-69, (E)-N-(4-(5-acetyl-2-(4-fluorophonyl)-4,5,6,7-tetrahydropyrazolo[1,5-a]pyrazin-3-yl)pyridin-2-yl)-3-(2,4-dimethoxyphenyl) acrylamide]
Wild type CK1δ
  IC50: 37.4 nM
CK1δ
  EC50: 300 nM

## CC(=O)Nc1cc(-c2c(-c3ccc(F)cc3)nn3c2CN(CCN(C)C)CC3)ccn1 [Compound I-50, N-(4-(5-(2-(dimethylamino)ethyl)-2-(4-fluorophenyl)-4,5,6,7-tetrahydropyrazolo [1,5-a]pyrazin-3-yl)pyridin-2-yl)acetamide]
CK1δ
  EC50: 200 nM
[1]; [3]
  microsomal CLint at 2 μM: 35.1 µL/min/mg
[1]; read-out: in vitro t1/2
  half-life at 2 μM: 0.658 h
In vitro
  Papp A→B at 2 h, 5 μM: 0.88 ×10⁻⁶ cm/s
  Papp B→A at 2 h, 5 μM: 22.4 ×10⁻⁶ cm/s
  efflux ratio at 2 h, 5 μM: 25.4
[2]; [3]
  microsomal CLint at 2 μM: 13.5 µL/min/mg
[2]; read-out: in vitro t1/2
  half-life at 2 μM: 1.71 h
